A word on the IC50: it is the concentration that gives 50% inhibition.

Our source for the IC50 values is US8071625B2, “Certain chemical entities, compositions, and methods” (Cytokinetics, Inc., priority 2006, dated 2011).

For this test, the target named is T1, crosslinked smooth muscle actomyosin (chicken gizzard smooth muscle myosin subfragment-1 crosslinked to cardiac or skeletal actin) (Gallus gallus, UniProt P10587).
T1 construct: chicken gizzard smooth muscle myosin subfragment-1; from tissue; host or cells: chicken gizzard
The experiment in a line: Lead optimization pyruvate kinase/horseradish peroxidase/pyruvate oxidase-coupled ATPase assay (compound dose response). Format: biochemical. The following applies: read-out: IC50 Arithmetic Mean. The method, then:
Screening assays were performed using a pyruvate kinase and lactate dehydrogenase-coupled ATPase assay containing the following reagents: Potassium PIPES (50 mM), MgCl2 (3 mM), KCl (100 mM), ATP (0.15 mM), DTT (1 mM), BSA (0.1 mg/ml), NADH (0.5 mM), PEP (1.5 mM), pyruvate kinase (4 U/ml), lactate dehydrogenase (8 U/ml), and antifoam (50 ppm) (concentrations expressed are final assay concentrations). The pH was adjusted to 6.80 at 22° C. by addition of potassium hydroxide. Lead optimization assays were performed with a more sensitive pyruvate kinase/horseradish peroxidase/pyruvate oxidase-coupled ATPase assay containing the following reagents: Potassium PIPES (12 mM), MgCl2 (2 mM), KCl (100 mM), ATP (0.15 mM), BSA (0.05 mg/ml), potassium phosphate (2 mM), amplex red (0.1 mM), PEP (0.1 mM), pyruvate kinase (4 U/ml), horseradish peroxidase (0.5 U/ml), pyruvate oxidase (0.5 U/ml), and antifoam (50 ppm) (concentrations expressed are final assay concentrations). The pH was adjusted to 7.00 at 22° C. by addition of potassium hydroxide.
The protein components specific to this assay are chicken gizzard smooth muscle myosin subfragment-1 that has been chemically crosslinked to either cardiac or skeletal actin using an excess of 1-Ethyl-3-[3-dimethylaminopropyl]carbodiimide hydrochloride and N-hydroxysuccinimide. The exact concentration of the crosslinked smooth muscle myosin in the assay is determined empirically, by titration to achieve a desired rate of ATP hydrolysis. The concentration varies between protein preparations due to variations in the fraction of active molecules in each preparation.
Compound dose response assays are performed by first preparing a dilution series of test compound, each with an assay mixture containing potassium PIPES, MgCl2, KCl, ATP, BSA, potassium phosphate, amplex red, PEP, crosslinked smooth muscle actomyosin (subfragment-1), antifoam, and water. The assay is started by adding an equal volume of solution containing potassium Pipes, MgCl2, KCl, BSA, potassium phosphate, pyruvate kinase, horseradish peroxidase, pyruvate oxidase, antifoam, and water. ATP hydrolysis is monitored by measuring the fluorescence of amplex red (excitation at 480 nm, emission at 615 nm). The resulting dose response curve is fit by the 4 parameter equation y=Bottom+((Top-Bottom)/(1+((IC50/X)^Hill))). The IC50 is defined as the concentration at which ATPase activity is midway between the top and bottom of the dose response curve.

Turning to `CCc1ccc(NC(=O)OCC2(C(=O)NCc3ccccc3Cl)CCN(C(=O)C(C)(C)N)CC2)cc1` [(1-(2-amino-2-methylpropanoyl)-4-{[N-(4-ethylphenyl)carbamoyloxy]methyl}(4-piperidyl))-N-[(2-chlorophenyl)methyl]carboxamide], the IC50 is 670 nM. On to `CCc1ccc(NC(=O)OCC2(C(=O)NCc3ccccc3Cl)CCN(C(=O)C(N)CC#N)CC2)cc1` (stereo not drawn) [(1-(2-amino-3-cyanopropanoyl)-4-{[N-(4-ethylphenyl)carbamoyloxy]methyl}(4-piperidyl))-N-[(2-chlorophenyl)methyl]carboxamide], for which the concentration for half-maximal inhibition (IC50) amounted to 797 nM. With `CCc1ccc(NC(=O)OCC2(C(=O)NCc3ccccc3Cl)CCN(C(=O)C(N)CO)CC2)cc1` (stereo not drawn) [(1-(2-amino-3-hydroxypropanoyl)-4-{[N-(4-ethylphenyl)carbamoyloxy]methyl}(4-piperidyl))-N-[(2-chlorophenyl)methyl]carboxamide], the IC50 stood at 143 nM. On to `CCc1ccc(NC(=O)OCC2(C(=O)NCc3ccccc3Cl)CCN(C(=O)C(N)C(C)C)CC2)cc1` (stereo not drawn) [(1-(2-amino-3-methylbutanoyl)-4-{[N-(4-ethylphenyl)carbamoyloxy]methyl}(4-piperidyl))-N-[(2-chlorophenyl)methyl]carboxamide], for which the IC50 is 540 nM.

For the molecule `CCc1ccc(NC(=O)OCC2(C(=O)NCc3ccccc3Cl)CCCN(C(=O)CN)C2)cc1` (stereo not drawn) [(1-(2-aminoacetyl)-3-{[N-(4-ethylphenyl)carbamoyloxy]methyl}(3-piperidyl))-N-[(2-chlorophenyl)methyl]carboxamide], the IC50 is 474 nM.

In the case of `CCc1ccc(NC(=O)OCC2(C(=O)NCc3ccccc3Cl)CCN(C(=O)CN)C2)cc1` (stereo not drawn) [(1-(2-aminoacetyl)-3-{[N-(4-ethylphenyl)carbamoyloxy]methyl}pyrrolidin-3-yl)-N-[(2-chlorophenyl)methyl]carboxamide], the IC50 was determined as 526 nM. For `CCc1ccc(NC(=O)OCCC2(C(=O)NCc3ccccc3Cl)CCN(C(=O)CN)CC2)cc1` [(1-(2-aminoacetyl)-4-{2-[N-(4-ethylphenyl)carbamoyloxy]ethyl}(4-piperidyl))-N-[(2-chlorophenyl)methyl]carboxamide] the value was 2440 nM; for `Cc1ccc(NC(=O)OCC2(C(=O)NCc3ccccc3Cl)CCN(C(=O)CN)CC2)c(Cl)c1` [(1-(2-aminoacetyl)-4-{[N-(2-chloro-4-methylphenyl)carbamoyloxy]methyl}(4-piperidyl))-N-[(2-chlorophenyl)methyl]carboxamide], 281 nM. Turning to `Cc1ccc(NC(=O)OCC2(C(=O)NCc3ccccc3Cl)CCN(C(=O)CN)CC2)cc1F` [(1-(2-aminoacetyl)-4-{[N-(3-fluoro-4-methylphenyl)carbamoyloxy]methyl}(4-piperidyl))-N-[(2-chlorophenyl)methyl]carboxamide], the IC50 was found to be 742 nM. Under `NCC(=O)N1CCC(COC(=O)Nc2ccc(Cl)cc2)(C(=O)NCc2ccccc2Cl)CC1` [(1-(2-aminoacetyl)-4-{[N-(4-chlorophenyl)carbamoyloxy]methyl}(4-piperidyl))-N-[(2-chlorophenyl)methyl]carboxamide] stands 569 nM; under `N#Cc1ccc(NC(=O)OCC2(C(=O)NCc3ccccc3Cl)CCN(C(=O)CN)CC2)cc1` [(1-(2-aminoacetyl)-4-{[N-(4-cyanophenyl)carbamoyloxy]methyl}(4-piperidyl))-N-[(2-chlorophenyl)methyl]carboxamide], 7780 nM; under `CCc1ccc(NC(=O)OCC2(C(=O)NCc3ccccc3Cl)CCN(C(=O)CN)CC2)cc1` [(1-(2-aminoacetyl)-4-{[N-(4-ethylphenyl)carbamoyloxy]methyl}(4-piperidyl))-N-[(2-chlorophenyl)methyl]carboxamide], 175 nM. For `CCc1ccc(NC(=O)OCC2(C(=O)NCc3ccccc3C#N)CCN(C(=O)CN)CC2)cc1` [(1-(2-aminoacetyl)-4-{[N-(4-ethylphenyl)carbamoyloxy]methyl}(4-piperidyl))-N-[(2-cyanophenyl)methyl]carboxamide] the value was 904 nM. Under `CCc1ccc(NC(=O)OCC2(C(=O)NCc3ccccc3F)CCN(C(=O)CN)CC2)cc1` [(1-(2-aminoacetyl)-4-{[N-(4-ethylphenyl)carbamoyloxy]methyl}(4-piperidyl))-N-[(2-fluorophenyl)methyl]carboxamide] stands 307 nM; under `CCc1ccc(NC(=O)OCC2(C(=O)NCc3ccccc3OC)CCN(C(=O)CN)CC2)cc1` [(1-(2-aminoacetyl)-4-{[N-(4-ethylphenyl)carbamoyloxy]methyl}(4-piperidyl))-N-[(2-methoxyphenyl)methyl]carboxamide], 2160 nM. On to `CCc1ccc(NC(=O)OCC2(C(=O)NCc3ccccc3C)CCN(C(=O)CN)CC2)cc1` [(1-(2-aminoacetyl)-4-{[N-(4-ethylphenyl)carbamoyloxy]methyl}(4-piperidyl))-N-[(2-methylphenyl)methyl]carboxamide], for which the IC50 stood at 167 nM. Under `CCc1ccc(NC(=O)OCC2(C(=O)NCc3ccccc3)CCN(C(=O)CN)CC2)cc1` [(1-(2-aminoacetyl)-4-{[N-(4-ethylphenyl)carbamoyloxy]methyl}(4-piperidyl))-N-benzylcarboxamide] stands 8110 nM; under `CCc1ccc(NC(=O)OCC2(C(=O)NCc3ccccc3CO)CCN(C(=O)CN)CC2)cc1` [(1-(2-aminoacetyl)-4-{[N-(4-ethylphenyl)carbamoyloxy]methyl}(4-piperidyl))-N-{[2-(hydroxymethyl)phenyl]methyl}carboxamide], 949 nM. Consider `NCC(=O)N1CCC(COC(=O)Nc2ccc(F)cc2)(C(=O)NCc2ccccc2Cl)CC1` [(1-(2-aminoacetyl)-4-{[N-(4-fluorophenyl)carbamoyloxy]methyl}(4-piperidyl))-N-[(2-chlorophenyl)methyl]carboxamide], for which the IC50 amounted to 14600 nM. For `Cc1ccc(NC(=O)OCC2(C(=O)NCc3ccccc3Cl)CCN(C(=O)CN)CC2)cc1` [(1-(2-aminoacetyl)-4-{[N-(4-methylphenyl)carbamoyloxy]methyl}(4-piperidyl))-N-[(2-chlorophenyl)methyl]carboxamide] the value was 191 nM; for `NCC(=O)N1CCC(COC(=O)Nc2ccc(-c3ccccc3)cc2)(C(=O)NCc2ccccc2Cl)CC1` [(1-(2-aminoacetyl)-4-{[N-(4-phenylphenyl)carbamoyloxy]methyl}(4-piperidyl))-N-[(2-chlorophenyl)methyl]carboxamide], 277 nM. Turning to `CCc1ccc(NC(=O)OCC2(C(=O)NCc3ccccc3Cl)CCN(CCN)CC2)cc1` [(1-(2-aminoethyl)-4-{[N-(4-ethylphenyl)carbamoyloxy]methyl}(4-piperidyl))-N-[(2-chlorophenyl)methyl]carboxamide], the IC50 came out at 1160 nM. For the molecule `CCc1ccc(NC(=O)OCC2(C(=O)NCc3ccccc3Cl)CCN(C(=O)C(O)CN)CC2)cc1` (stereo not drawn) [(1-(3-amino-2-hydroxypropanoyl)-4-{[N-(4-ethylphenyl)carbamoyloxy]methyl}(4-piperidyl))-N-[(2-chlorophenyl)methyl]carboxamide], the IC50 came to 120 nM. With `CCc1ccc(NC(=O)OCC2(C(=O)NCc3ccccc3Cl)CCN(C(=O)C(O)CCN)CC2)cc1` (stereo not drawn) [(1-(4-amino-2-hydroxybutanoyl)-4-{[N-(4-ethylphenyl)carbamoyloxy]methyl}(4-piperidyl))-N-[(2-chlorophenyl)methyl]carboxamide], the IC50 was found to be 187 nM. Under `CCc1ccc(NC(=O)OCC2(C(=O)NCc3ccccc3Cl)CCN(C(=O)CCCN)CC2)cc1` [(1-(4-aminobutanoyl)-4-{[N-(4-ethylphenyl)carbamoyloxy]methyl}(4-piperidyl))-N-[(2-chlorophenyl)methyl]carboxamide] stands 246 nM; under `CCc1ccc(NC(=O)OCC2(C(=O)NCc3ccccc3Cl)CCN(C(=O)[C@H](N)CO)CC2)cc1` [(1-((2R)-2-amino-3-hydroxypropanoyl)-4-{[N-(4-ethylphenyl)carbamoyloxy]methyl}(4-piperidyl))-N-[(2-chlorophenyl)methyl]carboxamide], 164 nM. For `CCc1ccc(NC(=O)OCC2(C(=O)NCc3ccccc3Cl)CCN(C(=O)[C@@H](C)N)CC2)cc1` [(1-((2R)-2-aminopropanoyl)-4-{[N-(4-ethylphenyl)carbamoyloxy]methyl}(4-piperidyl))-N-[(2-chlorophenyl)methyl]carboxamide] the value was 255 nM.
